Data as given in US20020169111A1, “Reversal of multidrug resistance in human colon carcinoma cells” (American Cyanamid Comany, priority 1998, published 2002).
“And” between values parts separate entries of the source, which are not always exact repeats. Equal values may be shown once. Read-outs that look alike come from different tables or passages of the source.

Key:
MCF-7 cells [1] = experiment: Dose modifying factor of FTC (SRB, EC50 ratio); format: cell-based, human; conditions: for Dose modifying factor (5 μM FTC): MCF-7 (untransfected, Table 11)
Procedure: (§1) Cell survival was estimated after 3 days using the SRB assay. Cell survival was determined by the SRB assay and EC50 values were determined from toxicity curves. The dose modifying factor (DMF) is the ratio of EC50 values obtained in the absence and presence of reversal agent. Maximum DMF values (shown in parentheses) is the ratio of EC50 values of resistant and sensitive cells in the absence of the reversal agent. This value is obtained when resistance is reversed completely, and is the equivalent of the relative resistance.
In order to determine the utility of FTC as a reversal agent in other multidrug resistant cell lines, FTC was tested in two breast cancer cell lines which show a multidrug resistant phenotype with no overexpression of P-gp or MRP.
Cell survival was estimated after 3 days using the SRB assay, and EC50 values were determined from cytotoxicity curves.

HL-60/AR cells = format: cell-based; conditions: for Dose modifying factor: HL-60/AR
Procedure: as §1

8226/MR4 cells = experiment: Reversal of mitoxantrone resistance in myeloid cells; format: cell-based, human; conditions: selected for resistance to mitoxantrone
MCF-7/BCRP cells = format: cell-based, human; conditions: MCF-7/BCRP
Procedure: (§2) All incubations were carried out in the absence or presence of FTC (1 or 5 μM).

MCF-7 cells [2] = format: cell-based, human; conditions: 1 hour retention phase
Procedure: as §2

S1-B1-20 cells = experiment: Reversal of resistance in P-gp expressing cells, alone or with 21 μM bisantrene; format: cell-based, human; set-up: Difference Score: unit not given here; conditions: for Per Cent Survival with 21 μM bisantrene / Per Cent Survival Alone / Difference Score: S1-B1-20 cells; for Difference Score: survival alone minus survival with 21 μM bisantrene
Procedure: To determine the specificity of FTC for non P-gp multidrug resistance, FTC was tested on S1-B1-20 cells which were selected for resistance to bisantrene and which express high levels of P-gp (Table 9)(Zhang, et al, Oncol. Res. 6291-301 (1994)). […] The 21 μM concentration of bisantrene is not inhibitory to the growth of the cells. Values shown are mean ± standard deviation from triplicate test wells.

A549 = experiment: Sensitization of unselected cells to mitoxantrone; format: cell-based; conditions: A549 non small cell lung carcinoma, not selected
H460 = experiment: Sensitization of unselected cells to mitoxantrone; format: cell-based; conditions: H460 non small cell lung carcinoma, not selected
S1 cells = experiment: Dose modifying factor of FTC (SRB, EC50 ratio); format: cell-based, human
Procedure: as §1

S1-M1-3.2 cells [3] = experiment: Dose modifying factor of FTC (SRB, EC50 ratio); format: cell-based, human; conditions: S1-M1 cells
Procedure: as §1

S1-M1-3.2 cells [4] = conditions: for Per Cent Survival Alone: 3 days; for Difference Score: survival alone minus survival with 3.2 μM mitoxantrone
How it was run: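 Cells grown in medium with 5% FBS received reversal agents at 0.1-80 μM (triplicate per dose), with or without the antitumor agent, plus reversal agent-only wells; survival by SRB assay. Difference Score = % survival with drug alone minus % survival with drug plus antitumor agent.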

HL-60 cells = experiment: Dose modifying factor of FTC (SRB, EC50 ratio); format: cell-based; conditions: for Dose modifying factor: HL-60
Procedure: as §1

[5] = 1 μM [14C]-doxorubicin, 1 hour retention phase
[6] = 1 μM daunorubicin, 1 hour retention phase

COc1ccc2c3c([nH]c2c1)[C@H](C=C(C)C)N1C(=O)[C@@H]2CCCN2C(=O)[C@@H]1C3 [Fumitremorgin C]
Dose modifying factor (MCF-7 cells [1]; MCF 7 (row above MCF 7/AdVp), 5 μM FTC with Doxorubicin): 2.0
Dose modifying factor (MCF-7 cells [1]; MCF 7 (row above MCF 7/AdVp), 5 μM FTC with Mitoxantrone): 7.5
Dose modifying factor (MCF-7 cells [1]; MCF 7 (row above MCF 7/AdVp), 5 μM FTC with Paclitaxel): 1.0
Dose modifying factor (MCF-7 cells [1]; MCF 7 (row above MCF 7/mtxR), 5 μM FTC with Doxorubicin): 1.0
Dose modifying factor (MCF-7 cells [1]; MCF 7 (row above MCF 7/mtxR), 5 μM FTC with Mitoxantrone): 1.7
Dose modifying factor (MCF-7 cells [1]; MCF 7 (row above MCF 7/mtxR), 5 μM FTC with Paclitaxel): 0.8
Dose modifying factor (5 μM FTC) (MCF-7 cells [1]; with Doxorubicin): 1.0
Dose modifying factor (5 μM FTC) (MCF-7 cells [1]; with Mitoxantrone): 2.5
Dose modifying factor (5 μM FTC) (MCF-7 cells [1]; with Paclitaxel): 0.7
Dose modifying factor (5 μM FTC) (MCF-7 cells [1]; with Topotecan): 5.6
Reversal by FTC (fold), range over drugs (MCF-7 cells [1]; parental unselected MCF-7 cells): 0.8-1.7 fold
reversal by FTC (fold), mitoxantrone and topotecan (MCF-7 cells [1]; untransfected MCF-7 cells, 5 μM FTC): 2.5-5.6 fold
reversal activity of FTC (fold), range over drugs (HL-60/AR cells; HL60/AR): 2.6-3.3 fold
Dose modifying factor (HL-60/AR cells; 5 μM FTC with Doxorubicin): 2.8 (92.3)
Dose modifying factor (HL-60/AR cells; 5 μM FTC with Mitoxantrone): 3.3 (53)
Dose modifying factor (HL-60/AR cells; 5 μM FTC with Paclitaxel): 2.6 (5.1)
reversal of resistance in MRP-positive HL60/AR cells (in words) (HL-60/AR cells; doxorubicin-selected): did not reverse resistance
reversal of resistance in 8226/MR4 cells (in words) (8226/MR4 cells): reversed low level resistance
[^14C] doxorubicin retention, 1 μM FTC (MCF-7/BCRP cells; [5]): 9.5 ± 0.63 DPM per microgram protein
[^14C] doxorubicin retention, 5 μM FTC (MCF-7/BCRP cells; [5]): 9.9 ± 0.18 DPM per microgram protein
daunorubicin retention, Channel Number (fluorescence units), 1 μM FTC (MCF-7/BCRP cells; [6]): 12.2 ± 1.78 fluorescence units
daunorubicin retention, Channel Number (fluorescence units), 5 μM FTC (MCF-7/BCRP cells; [6]): 15.6 ± 0.94 fluorescence units
increase of amount of [^14C]-doxorubicin retained compared with untreated cells (MCF-7/BCRP cells; FTC 1 or 5 μM): 1.8 fold
increase of amount of daunorubicin retained compared with untreated cells (MCF-7/BCRP cells; FTC 1 or 5 μM): 1.8-2.3 fold
[^14C] doxorubicin retention, 1 μM FTC (MCF-7 cells [2]; 1 μM [14C]-doxorubicin): 10.3 ± 0.26 DPM per microgram protein
[^14C] doxorubicin retention, 5 μM FTC (MCF-7 cells [2]; 1 μM [14C]-doxorubicin): 11.0 ± 0.71 DPM per microgram protein
daunorubicin retention, Channel Number (fluorescence units), 1 μM FTC (MCF-7 cells [2]; 1 μM daunorubicin): 16.0 ± 0.98 fluorescence units
daunorubicin retention, Channel Number (fluorescence units), 5 μM FTC (MCF-7 cells [2]; 1 μM daunorubicin): 16.8 ± 1.0 fluorescence units
Per Cent Survival with 21 μM bisantrene (S1-B1-20 cells; drug 0.1 μM): 101 ± 1 Per Cent
Per Cent Survival Alone (S1-B1-20 cells; drug 0.1 μM alone): 99 ± 1 Per Cent
Difference Score (S1-B1-20 cells; drug 0.1 μM): −4
Per Cent Survival with 21 μM bisantrene (S1-B1-20 cells; drug 0.5 μM): 103 ± 1 Per Cent
Per Cent Survival Alone (S1-B1-20 cells; drug 0.5 μM alone): 99 ± 1 Per Cent
Difference Score (S1-B1-20 cells; drug 0.5 μM): −4
Per Cent Survival with 21 μM bisantrene (S1-B1-20 cells; drug 1 μM): 100 ± 0 Per Cent
Per Cent Survival Alone (S1-B1-20 cells; drug 1 μM alone): 98 ± 3 Per Cent
Difference Score (S1-B1-20 cells; drug 1 μM): −2
Per Cent Survival with 21 μM bisantrene (S1-B1-20 cells; drug 5 μM): 103 ± 2 Per Cent
Per Cent Survival Alone (S1-B1-20 cells; drug 5 μM alone): 101 ± 3 Per Cent
Difference Score (S1-B1-20 cells; drug 5 μM): −2
Per Cent Survival with 21 μM bisantrene (S1-B1-20 cells; drug 10 μM): 93 ± 1 Per Cent
Per Cent Survival Alone (S1-B1-20 cells; drug 10 μM alone): 88 ± 0 Per Cent
Difference Score (S1-B1-20 cells; drug 10 μM): −4
Per Cent Survival with 21 μM bisantrene (S1-B1-20 cells; drug 20 μM): 89 ± 1 Per Cent
Per Cent Survival Alone (S1-B1-20 cells; drug 20 μM alone): 85 ± 0 Per Cent
Difference Score (S1-B1-20 cells; drug 20 μM): −4
Per Cent Survival with 21 μM bisantrene (S1-B1-20 cells; drug 40 μM): 77 ± 2 Per Cent
Per Cent Survival Alone (S1-B1-20 cells; drug 40 μM alone): 83 ± 1 Per Cent
Difference Score (S1-B1-20 cells; drug 40 μM): 13
Per Cent Survival with 21 μM bisantrene (S1-B1-20 cells; drug 80 μM): 53 ± 5 Per Cent
Per Cent Survival Alone (S1-B1-20 cells; drug 80 μM alone): 35 ± 1 Per Cent
Difference Score (S1-B1-20 cells; drug 80 μM): −18
reversal of resistance in P-gp positive S1-B1-20 cells (in words) (S1-B1-20 cells; bisantrene-selected): did not reverse resistance
sensitization to mitoxantrone (in words) (A549): can be sensitized to mitoxantrone
sensitization to mitoxantrone (in words) (H460): can be sensitized to mitoxantrone
Dose modifying factor (S1 cells; 5 μM FTC with Doxorubicin): 1
Dose modifying factor (S1 cells; 5 μM FTC with Mitoxantrone): 1
Dose modifying factor (S1 cells; 5 μM FTC with Paclitaxel): 1.4
Dose modifying factor (S1 cells; 5 μM FTC with Topotecan): 0.9
Dose modifying factor (S1-M1-3.2 cells [3]; 5 μM FTC with Doxorubicin, listed as FTC): 26 and 25.9
Dose modifying factor (S1-M1-3.2 cells [3]; 5 μM FTC with Mitoxantrone): 93
Dose modifying factor (S1-M1-3.2 cells [3]; 5 μM FTC with Paclitaxel): 1.1
Dose modifying factor (S1-M1-3.2 cells [3]; 5 μM FTC with Topotecan): 24
concentration giving 40% cell death (compound alone) (S1-M1-3.2 cells [4]; S1-M1-3.2 cells): greater than 80 μM
toxicity alone (in words) (S1-M1-3.2 cells [4]; S1-M1-3.2 cells, dose range tested 0.1-80 μM): No toxicity
Per Cent Survival with 3.2 μM mitoxantrone (S1-M1-3.2 cells [4]; S1-M1-3.2 cells, drug 0.1 μM): 95 ± 4 Per Cent
Per Cent Survival Alone (S1-M1-3.2 cells [4]; S1-M1-3.2 cells, drug 0.1 μM alone): 105 ± 4 Per Cent
Difference Score (S1-M1-3.2 cells [4]; S1-M1-3.2 cells, drug 0.1 μM): 10
Per Cent Survival with 3.2 μM mitoxantrone (S1-M1-3.2 cells [4]; S1-M1-3.2 cells, drug 0.5 μM): 39 ± 10 Per Cent
Per Cent Survival Alone (S1-M1-3.2 cells [4]; S1-M1-3.2 cells, drug 0.5 μM alone): 105 ± 2 Per Cent
Difference Score (S1-M1-3.2 cells [4]; S1-M1-3.2 cells, drug 0.5 μM): 66
Per Cent Survival with 3.2 μM mitoxantrone (S1-M1-3.2 cells [4]; S1-M1-3.2 cells, drug 1 μM): 30 ± 1 Per Cent
Per Cent Survival Alone (S1-M1-3.2 cells [4]; S1-M1-3.2 cells, drug 1 μM alone): 103 ± 1 Per Cent
Difference Score (S1-M1-3.2 cells [4]; S1-M1-3.2 cells, drug 1 μM): 73
Per Cent Survival with 3.2 μM mitoxantrone (S1-M1-3.2 cells [4]; S1-M1-3.2 cells, drug 5 μM): 24 ± 4 Per Cent
Per Cent Survival Alone (S1-M1-3.2 cells [4]; S1-M1-3.2 cells, drug 5 μM alone): 99 ± 5 Per Cent
Difference Score (S1-M1-3.2 cells [4]; S1-M1-3.2 cells, drug 5 μM): 75
Per Cent Survival with 3.2 μM mitoxantrone (S1-M1-3.2 cells [4]; S1-M1-3.2 cells, drug 10 μM): 22 ± 6 Per Cent
Per Cent Survival Alone (S1-M1-3.2 cells [4]; S1-M1-3.2 cells, drug 10 μM alone): 99 ± 1 Per Cent
Difference Score (S1-M1-3.2 cells [4]; S1-M1-3.2 cells, drug 10 μM): 77
Per Cent Survival with 3.2 μM mitoxantrone (S1-M1-3.2 cells [4]; S1-M1-3.2 cells, drug 20 μM): 17 ± 10 Per Cent
Per Cent Survival Alone (S1-M1-3.2 cells [4]; S1-M1-3.2 cells, drug 20 μM alone): 104 ± 4 Per Cent
Difference Score (S1-M1-3.2 cells [4]; S1-M1-3.2 cells, drug 20 μM): 87
Per Cent Survival with 3.2 μM mitoxantrone (S1-M1-3.2 cells [4]; S1-M1-3.2 cells, drug 40 μM): 14 ± 11 Per Cent
Per Cent Survival Alone (S1-M1-3.2 cells [4]; S1-M1-3.2 cells, drug 40 μM alone): 108 ± 5 Per Cent
Difference Score (S1-M1-3.2 cells [4]; S1-M1-3.2 cells, drug 40 μM): 94
Per Cent Survival with 3.2 μM mitoxantrone (S1-M1-3.2 cells [4]; S1-M1-3.2 cells, drug 80 μM): 13 ± 11 Per Cent
Per Cent Survival Alone (S1-M1-3.2 cells [4]; S1-M1-3.2 cells, drug 80 μM alone): 94 ± 4 Per Cent
Difference Score (S1-M1-3.2 cells [4]; S1-M1-3.2 cells, drug 80 μM): 81
Toxicity (>20%) (S1-M1-3.2 cells [4]; compound alone, concentration that causes greater than 20% cell death of S1-M1-3.2 cells): >80.0 µM
Toxicity (>20%) (μM) (S1-M1-3.2 cells [4]; compound alone, concentration that causes greater than 20% cell death of S1-M1-3.2 cells, listed as FTC): greater than 80.0 μM
IC50 (S1-M1-3.2 cells [4]; read-out: IC50 (μM), resensitizing S1-M1-3.2 cells to mitoxantrone, with 3.2 μM mitoxantrone, 50% cancer cell death, listed as FTC): 0.35 µM and 0.3 µM
Dose modifying factor (HL-60 cells; 5 μM FTC with Doxorubicin): 2.1
Dose modifying factor (HL-60 cells; 5 μM FTC with Mitoxantrone): 1.3
Dose modifying factor (HL-60 cells; 5 μM FTC with Paclitaxel): 1.0
reversal activity of FTC (fold), range over drugs (HL-60 cells; parental line HL-60): 1.0-2.1 fold
